The results in this text go back to patent publication US20230265116A1, “DEGRADATION OF (EGFR) BY CONJUGATION OF EGFR INHIBITORS WITH E3 LIGASE LIGAND AND METHODS OF USE” (BEIGENE, LTD., priority 2020, published 2023).

In assay [1] the test system is EGFR Del19/T790M/C797S (BaF3-DTC cells). Nature of the assay: EGFR degradation HTRF assay, BaF3-DTC cells. The class given is cell-based. The conditions noted are these: 16h treatment; for DTC Dmax (%): maximum percentage of degradation; for DC50: read-out: DTC DC50. The method, then:
BaF3 WT(wild type), BaF3-LTC(L858R/T790M/C797S) and BaF3-DTC(Del19/T790M/C797S) cells are treated with compounds diluted in 0.2% DMSO cell culture medium and incubate for 16h, 37° C., 5% CO2, H1975-#36, H1975-#28, H1975-#23 and HCC827 cells are treated with compounds diluted in 0.2% DMSO cell culture medium on day 2, incubate for 16h, 37° C., 5% CO2.the final concentriation of compounds in all assay is start with 10 uM, 5-fold dilution, total 8 doses were included.
After 16h treatment, add HTRF lysis buffer to each well; seal the plate and incubate 1 hour at room temperature on a plate shaker; Once the cells are lysed, 16 μL of cell lysate are transferred to a PE 384-well HTRF detection plate; 4 μL of pre-mixed HTRF antibodies are added to each well; Cover the plate with a plate sealer, spin 1000 rpm for 1 min, Incubate overnight at room temperature; Read on BMG PheraStar with HTRF protocol (337 nm-665 nm-620 nm).
The inhibition (degradation) percentage of the compound was calculated by the following equation: Inhibition percentage of Compound=100-100×(Signal-low control)/(High control-low control), wherein signal=each test compound group
High control=Cell group with added DMSO and without compound, indicating microplate readings without EGFR degradation;
Dmax is the maximum percentage of inhibition (degradation).
The IC50 (DC50) value of a compound can be obtained by fitting the following equation
Y=Bottom+(TOP−Bottom)/(1+((IC50/X)^hillslope))
Wherein, X and Y are known values, and IC50, Hillslope, Top and Bottom are the parameters obtained by fitting with software. Y is the inhibition percentage (calculated from the equation), X is the concentration of the compound; IC50 is the concentration of the compound when the 50% inhibition is reached. The smaller the IC50 value is, the stronger the inhibitory ability of the compound is. Vice versa, the higher the IC50 value is, the weaker the inhibitory ability of the compound is; Hillslope represents the slope of the fitted curve, generally around 1*; Bottom represents the minimum value of the curve obtained by data fitting, which is generally 0%±20%; Top represents the maximum value of the curve obtained by data fitting, which is generally 100%±20%. The experimental data were fitted by calculating and analyzing with Dotmatics data analysis software.

Assay [2] addresses T1, EGFR L858R/T790M/C797S (BaF3-LTC cells) (Homo sapiens, UniProt P00533, C797S/L858R/T790M).
T1 construct: expressed in transfected cells; host or cells: BaF3
Nature of the assay: EGFR degradation HTRF assay, BaF3-LTC cells. In kind it is cell-based. The conditions noted are these: BaF3-LTC, 16h treatment; for Dmax: maximum percentage of degradation, read-out: LTC Dmax (%); for DC50: read-out: LTC DC50. The method, boiled down:
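Cells treated 16 h at 37 °C, 5% CO2 in medium with 0.2% DMSO; top final concentration 10 uM, 5-fold dilution, 8 doses. Lysates read by HTRF (665/620 nm); degradation % versus DMSO high control, DC50 from four-parameter fit, Dmax as maximal degradation.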

T1 sequence (P00533 25-1210 T790M/C797S/L858R): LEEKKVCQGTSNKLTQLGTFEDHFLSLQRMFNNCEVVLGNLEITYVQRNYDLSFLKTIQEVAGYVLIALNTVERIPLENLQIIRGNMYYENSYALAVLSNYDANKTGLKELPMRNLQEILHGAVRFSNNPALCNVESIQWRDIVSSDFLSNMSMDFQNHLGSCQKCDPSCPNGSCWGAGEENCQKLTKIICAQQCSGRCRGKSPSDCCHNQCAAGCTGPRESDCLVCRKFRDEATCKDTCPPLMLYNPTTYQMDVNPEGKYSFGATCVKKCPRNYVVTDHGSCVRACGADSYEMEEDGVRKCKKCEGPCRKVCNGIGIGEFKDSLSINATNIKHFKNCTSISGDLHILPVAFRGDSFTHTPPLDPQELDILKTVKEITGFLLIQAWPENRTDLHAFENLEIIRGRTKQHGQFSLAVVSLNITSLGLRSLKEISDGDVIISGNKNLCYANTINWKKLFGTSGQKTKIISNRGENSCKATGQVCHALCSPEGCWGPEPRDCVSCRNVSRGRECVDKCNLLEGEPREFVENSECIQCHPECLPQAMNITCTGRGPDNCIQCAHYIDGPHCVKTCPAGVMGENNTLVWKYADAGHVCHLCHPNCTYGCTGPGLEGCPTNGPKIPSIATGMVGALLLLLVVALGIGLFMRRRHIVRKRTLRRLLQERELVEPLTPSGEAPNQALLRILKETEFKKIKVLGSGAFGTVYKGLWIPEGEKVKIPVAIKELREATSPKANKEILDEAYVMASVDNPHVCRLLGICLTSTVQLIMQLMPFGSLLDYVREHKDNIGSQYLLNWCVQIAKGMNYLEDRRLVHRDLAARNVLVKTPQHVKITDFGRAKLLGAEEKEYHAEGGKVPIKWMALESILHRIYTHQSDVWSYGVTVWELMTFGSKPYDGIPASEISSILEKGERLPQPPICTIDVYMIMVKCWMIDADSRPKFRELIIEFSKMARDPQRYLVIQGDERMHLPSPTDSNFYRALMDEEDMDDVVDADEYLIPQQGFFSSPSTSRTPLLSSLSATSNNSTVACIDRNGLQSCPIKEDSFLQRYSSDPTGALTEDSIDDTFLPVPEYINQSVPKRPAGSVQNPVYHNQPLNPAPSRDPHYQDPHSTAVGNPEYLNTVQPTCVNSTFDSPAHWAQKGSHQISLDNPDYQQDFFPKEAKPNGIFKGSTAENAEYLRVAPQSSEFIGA

On to `CCc1cc(Nc2ncc(Br)c(Nc3ccc4nc(C)ccc4c3P(C)(C)=O)n2)c(OC)cc1N1CCC(N2CCN(C(=O)[C@H]3C[C@H](Nc4cc(F)c(C5CCC(=O)NC5=O)c(F)c4)C3)CC2)CC1` (stereo partly drawn) [Example 209, 3-(4-(((1r,3r)-3-(4-(1-(4-((5-bromo-4-((5-(dimethylphosphoryl)-2-methylquinolin-6-yl)amino)pyrimidin-2-yl)amino)-2-ethyl-5-methoxyphenyl)piperidin-4-yl)piperazine-1-carbonyl)cyclobutyl)amino)-2,6-difluorophenyl)piperidine-2,6-dione], for which, in assay [1], the “DTC Dmax (%)” value is listed as 96.2% and the DC50 is 2.1 nM. Also, in assay [2], the Dmax was 95.5% and the DC50 turned out to be 3.92 nM.
The like results for `CCc1cc(Nc2ncc(Br)c(Nc3ccc4nc(C)ccc4c3P(C)(C)=O)n2)c(OC)cc1N1CCC(N2CCN(C(=O)C3CCN(c4ccc5c(c4)n(C)c(=O)n5C4CCC(=O)NC4=O)CC3)CC2)CC1` (stereo not drawn) [Example 210, 3-(5-(4-(4-(1-(4-((5-bromo-4-((5-(dimethylphosphoryl)-2-methylquinolin-6-yl)amino)pyrimidin-2-yl)amino)-2-ethyl-5-methoxyphenyl)piperidin-4-yl)piperazine-1-carbonyl)piperidin-1-yl)-3-methyl-2-oxo-2,3-dihydro-1H-benzo[d]imidazol-1-yl)piperidine-2,6-dione] were, in that order, 92.69%, 0.781 nM, 90.5% and 1.24 nM.
With `CCc1cc(Nc2ncc(Br)c(Nc3ccc4nc(C)ccc4c3P(C)(C)=O)n2)c(OC)cc1N1CCC(N2CCN(CCc3ccc4c(cnn4C4CCC(=O)NC4=O)c3)CC2)CC1` (stereo not drawn) [Example 211, 3-(5-(2-(4-(1-(4-((5-bromo-4-((5-(dimethylphosphoryl)-2-methylquinolin-6-yl)amino)pyrimidin-2-yl)amino)-2-ethyl-5-methoxyphenyl)piperidin-4-yl)piperazin-1-yl)ethyl)-1H-indazol-1-yl)piperidine-2,6-dione], in assay [1], the “DTC Dmax (%)” value came out at 94.88% and the DC50 turned out to be 2.72 nM. Also, in assay [2], the Dmax turned out to be 91.4% and the DC50 stood at 4.75 nM.
On the same counts, the results for `COc1cc(N2CCC(N3CCN(CCc4ccc(C5CCC(=O)NC5=O)c(F)c4)CC3)CC2)ccc1Nc1ncc(Br)c(Nc2ccc3nccnc3c2P(C)(C)=O)n1` (stereo not drawn) [Example 212, 3-(4-(2-(4-(1-(4-((5-bromo-4-((5-(dimethylphosphoryl)quinoxalin-6-yl)amino)pyrimidin-2-yl)amino)-3-methoxyphenyl)piperidin-4-yl)piperazin-1-yl)ethyl)-2-fluorophenyl)piperidine-2,6-dione] are 94.28%, 16.6 nM, 78.8% and 81.2 nM.
On the same counts, the results for `COc1cc(N2CCC(N3CCN(CCC4CCN(c5cc(F)c(C6CCC(=O)NC6=O)c(F)c5)CC4)CC3)CC2)ccc1Nc1ncc(Br)c(Nc2ccc3nccnc3c2P(C)(C)=O)n1` (stereo not drawn) [Example 213, 3-(4-(4-(2-(4-(1-(4-((5-bromo-4-((5-(dimethylphosphoryl)quinoxalin-6-yl)amino)pyrimidin-2-yl)amino)-3-methoxyphenyl)piperidin-4-yl)piperazin-1-yl)ethyl)piperidin-1-yl)-2,6-difluorophenyl)piperidine-2,6-dione] are 94.05%, 4.71 nM, 88.6% and 21.1 nM.
On the same counts, the results for `COc1cc(N2CCC(N3CCN(CCc4ccc(C5CCC(=O)NC5=O)c(F)c4)CC3)CC2)c(C)cc1Nc1ncc(Br)c(Nc2ccc3nccnc3c2P(C)(C)=O)n1` (stereo not drawn) [Example 214, 3-(4-(2-(4-(1-(4-((5-bromo-4-((5-(dimethylphosphoryl)quinoxalin-6-yl)amino)pyrimidin-2-yl)amino)-5-methoxy-2-methylphenyl)piperidin-4-yl)piperazin-1-yl)ethyl)-2-fluorophenyl)piperidine-2,6-dione] are 85.16%, 13.7 nM, 75% and 54.9 nM.
Regarding `COc1cc(N2CCC(N3CCN(CCC4CCN(c5cc(F)c(C6CCC(=O)NC6=O)c(F)c5)CC4)CC3)CC2)c(C)cc1Nc1ncc(Br)c(Nc2ccc3nccnc3c2P(C)(C)=O)n1` (stereo not drawn) [Example 215, 3-(4-(4-(2-(4-(1-(4-((5-bromo-4-((5-(dimethylphosphoryl)quinoxalin-6-yl)amino)pyrimidin-2-yl)amino)-5-methoxy-2-methylphenyl)piperidin-4-yl)piperazin-1-yl)ethyl)piperidin-1-yl)-2,6-difluorophenyl)piperidine-2,6-dione], in assay [1], the “DTC Dmax (%)” value is 96.67% and the DC50 was found to be 4.91 nM. Besides, in assay [2], the Dmax is 91.4% and the DC50 turned out to be 20.5 nM.
For the molecule `COc1cc(N2CCC(N3CCN(CCC4CCN(c5cc(F)c(C6CCC(=O)NC6=O)c(F)c5)CC4)CC3=O)CC2)c(C)cc1Nc1ncc(Br)c(Nc2ccc3nccnc3c2P(C)(C)=O)n1` (stereo not drawn) [Example 216, 3-(4-(4-(2-(4-(1-(4-((5-bromo-4-((5-(dimethylphosphoryl)quinoxalin-6-yl)amino)pyrimidin-2-yl)amino)-5-methoxy-2-methylphenyl)piperidin-4-yl)-3-oxopiperazin-1-yl)ethyl)piperidin-1-yl)-2,6-difluorophenyl)piperidine-2,6-dione], in assay [1], the “DTC Dmax (%)” value is on record as 93.59% and the DC50 amounted to 5.56 nM. Also, in assay [2], the Dmax was 87.7% and the DC50 was 23.3 nM.
The like results for `COc1cc(N2CCC(N3CCN(CCC4CCN(c5cc(F)c(C6CCC(=O)NC6=O)c(F)c5)CC4)CC3)CC2)c(C)cc1Nc1ncc(Br)c(Nc2ccc3nc(C)ccc3c2P(C)(C)=O)n1` (stereo not drawn) [Example 217, 3-(4-(4-(2-(4-(1-(4-((5-bromo-4-((5-(dimethylphosphoryl)-2-methylquinolin-6-yl)amino)pyrimidin-2-yl)amino)-5-methoxy-2-methylphenyl)piperidin-4-yl)piperazin-1-yl)ethyl)piperidin-1-yl)-2,6-difluorophenyl)piperidine-2,6-dione] were, in that order, 90.75%, 29.7 nM, 89.6% and 86.8 nM.
Consider `COc1cc(N2CCC(N3CCN(CCC4CCN(c5cc(F)c(C6CCC(=O)NC6=O)c(F)c5)CC4)CC3)CC2)ccc1Nc1ncc(Br)c(Nc2ccc3nc(C)ccc3c2P(C)(C)=O)n1` (stereo not drawn) [Example 218, 3-(4-(4-(2-(4-(1-(4-((5-bromo-4-((5-(dimethylphosphoryl)-2-methylquinolin-6-yl)amino)pyrimidin-2-yl)amino)-3-methoxyphenyl)piperidin-4-yl)piperazin-1-yl)ethyl)piperidin-1-yl)-2,6-difluorophenyl)piperidine-2,6-dione], for which, in assay [1], the “DTC Dmax (%)” value was 97.83% and the DC50 was 2.9 nM. For the same molecule, in assay [2], the Dmax is 87.3% and the DC50 amounted to 9.19 nM.
With `CCc1cc(Nc2ncc(Br)c(Nc3ccc4nccnc4c3P(C)(C)=O)n2)c(OC)cc1N1CCC(N2CCN(C(=O)[C@H]3CCN(c4ccc(C5CCC(=O)NC5=O)cc4)C3)CC2)CC1` (stereo partly drawn) [Example 223, 3-(4-((S)-3-(4-(1-(4-((5-bromo-4-((5-(dimethylphosphoryl)quinoxalin-6-yl)amino)pyrimidin-2-yl)amino)-2-ethyl-5-methoxyphenyl)piperidin-4-yl)piperazine-1-carbonyl)pyrrolidin-1-yl)phenyl)piperidine-2,6-dione], in assay [1], the “DTC Dmax (%)” value is listed as 86.61% and the DC50 was 8.56 nM. Further, in assay [2], the Dmax was found to be 82.9% and the DC50 worked out at 31.3 nM.
The like results for `CCc1cc(Nc2ncc(Br)c(Nc3ccc4nccnc4c3P(C)(C)=O)n2)c(OC)cc1N1CCC(N2CCN(C(=O)[C@@H]3CCN(c4ccc(C5CCC(=O)NC5=O)cc4)C3)CC2)CC1` (stereo partly drawn) [Example 224, 3-(4-((R)-3-(4-(1-(4-((5-bromo-4-((5-(dimethylphosphoryl)quinoxalin-6-yl)amino)pyrimidin-2-yl)amino)-2-ethyl-5-methoxyphenyl)piperidin-4-yl)piperazine-1-carbonyl)pyrrolidin-1-yl)phenyl)piperidine-2,6-dione] were, in that order, 87.47%, 8.41 nM, 81.5% and 37.2 nM.
